Reference: PMC4870679, “A novel pathway for fungal D-glucuronate catabolism contains an L-idonate forming 2-keto-L-gulonate reductase” (Scientific Reports, 2016)

How the values were obtained:
[1] = tested on: GluC (2-keto-L-gulonate reductase); assay: NADH formation at […] nm, Konelab analyser; format: biochemical, Aspergillus niger; details: 400 uM NAD+, 50 mM Tris pH 8; reverse direction
[2] = tested on: GluC (2-keto-L-gulonate reductase); assay: NADH consumption at […] nm, Konelab analyser; format: biochemical, Aspergillus niger; details: 400 uM NADH, 50 mM Tris pH 7

SMILES | Km [1] | Km [2]
O=C(O)[C@H](O)[C@@H](O)[C@H](O)[C@@H](O)CO [L-idonate] | 20 mM | 
O=C(O)C(=O)[C@@H](O)[C@H](O)[C@@H](O)CO [2-keto-L-gulonate] |  | 30 mM
